Measured values as given in patent US20250304620A1, “ANTIMICROBIAL PEPTIDE AND APPLICATION THEREOF” (priority 2023, published 2025).
Where two headings read alike, the source gives them in different places. Marks after values point to notes of the source that are not given here. Non-standard residues stand in square brackets, D forms with d. Residues, ends and D or L forms follow the SMILES beside them. PEG200 = polyethylene glycol 200, conjugated to the C-terminus; dPhe(3,4-F2) = N[C@H](Cc1ccc(F)c(F)c1)C(=O)O; 2Nal = N[C@@H](Cc1ccc2ccccc2c1)C(=O)O

Key:
[1] = system: rabbit red blood cells; format: cell-based; details: red cells of rabbit, 1 h
[2] = system: Pseudomonas aeruginosa ATCC 27853; test: Injectable formulations on mice infected with peritonitis; format: in vivo, ICR mice; details: twice a day for 3 days; for Number of mice that died on each day after infection: day 1 / Number of mice that died on each day after infection: day 2 / Number of mice that died on each day after infection: day 3 / Number of mice that died on each day after infection: day 4 / Number of mice that died on each day after infection: day 5 / Average survival times (Days): n = 10; for Average survival times (Days): observed for 14 d
Summary of the method: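 ICR mice of both sexes (10 per group) infected intraperitoneally with 0.2 mL P. aeruginosa ATCC 27853 at 1×10^9 CFU/mL. Injectable formulations dosed by body weight via tail vein twice daily for 3 days; deaths and survival time recorded over 14 d.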

[3] = system: Escherichia coli ATCC 25922; test: Oral formulations on mice with systemic bacterial infection; format: in vivo, ICR mice; details: three times a day for 7 days; for Number of mice that died on each day after infection: day 4 / Number of mice that died on each day after infection: day 5 / Number of mice that died on each day after infection: day 6 / Number of mice that died on each day after infection: day 7 / Number of mice that died on each day after infection: day 8 / Average survival times (Days): n = 10; for Average survival times (Days): observed for 14 d
Summary of the method: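 ICR mice of both sexes, 10 per group, infected i.p. with 0.2 mL E. coli ATCC 25922 at 1×10^7 CFU/mL. Compounds gavaged by body weight immediately after infection, three times daily for 7 days; deaths and survival time recorded over 14 d observation.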

[4] = system: Methicillin-resistant Staphylococcus aureus (MRSA); format: in vivo, ICR mice; details: 0.1 mL twice a day for 4 days, mouse back skin infection
Method: (§1) Both female and male ICR mice were used in the test, half of the female and male mice were taken and randomly assigned into groups, with 10 mice in each group, and kept in separate cages. The mice were divided into a blank group, a model group, a positive control Methicillin group, and topical formulation groups of AMPs LV-1 to LV-30. Suspensions of Methicillin-sensitive Staphylococcus aureus (NRS 384) and Methicillin-resistant Staphylococcus aureus (MRSA) were prepared, and their concentrations were adjusted to a concentration of 5×10^6 CFU/mL for subsequent use. Hair on backs of the mice was shaved with a shaver, wound was created on back skin of each mouse using a biopsy punch, and the wound was then infected with Methicillin-sensitive Staphylococcus aureus and Methicillin-resistant Staphylococcus aureus (0.1 mL, 5×10^6 CFU/mL) to establish infection models. Except for the blank group and the model group, all other groups received corresponding topical formulations applied directly to the infected areas, with a dose of 0.1 mL, twice a day for 4 consecutive days. On the day following the final administration, skin from the infected sites of each group was aseptically collected, and an antibacterial rate was calculated.

[5] = system: Methicillin-sensitive Staphylococcus aureus (NRS 384); format: in vivo, ICR mice; details: 0.1 mL twice a day for 4 days, mouse back skin infection
Method: as §1

CC(=O)N[C@H](CCCCN)C(=O)N[C@H](CCCCN)C(=O)N[C@H](CC(C)C)C(=O)N[C@H](CC(C)C)C(=O)N[C@H](Cc1ccc(F)c(F)c1)C(=O)N[C@H](CCCNC(=N)N)C(=O)N[C@H](CC(C)C)C(=O)N[C@H](CCCCN)C(=O)N[C@H](Cc1ccc(F)c(F)c1)C(=O)N[C@H](CCCNC(=N)N)C(=O)N[C@H](CCCCN)C(N)=O [LV-25] (Ac-[dK][dK][dL][dL][dPhe(3,4-F2)][dR][dL][dK][dPhe(3,4-F2)][dR][dK]-NH2)
MHC (minimum hemolytic concentration, lowest concentration causing 10% hemolysis) [1]: >1000 µg/mL
Number of mice that died on each day after infection: day 1 ([2]; 0.2 mg/kg via tail vein): 2 Mouse
Number of mice that died on each day after infection: day 2 ([2]; 0.2 mg/kg via tail vein): 1 Mouse
Number of mice that died on each day after infection: day 3 ([2]; 0.2 mg/kg via tail vein): 1 Mouse
Number of mice that died on each day after infection: day 4 ([2]; 0.2 mg/kg via tail vein): 1 Mouse
Number of mice that died on each day after infection: day 5 ([2]; 0.2 mg/kg via tail vein): 1 Mouse
Average survival times (Days) ([2]; 0.2 mg/kg via tail vein): 7.2** Days
Number of mice that died on each day after infection: day 1 ([2]; 1 mg/kg via tail vein): 0 Mouse
Number of mice that died on each day after infection: day 2 ([2]; 1 mg/kg via tail vein): 1 Mouse
Number of mice that died on each day after infection: day 3 ([2]; 1 mg/kg via tail vein): 1 Mouse
Number of mice that died on each day after infection: day 4 ([2]; 1 mg/kg via tail vein): 0 Mouse
Number of mice that died on each day after infection: day 5 ([2]; 1 mg/kg via tail vein): 1 Mouse
Average survival times (Days) ([2]; 1 mg/kg via tail vein): 10.8**** Days
Number of mice that died on each day after infection: day 1 ([2]; 5 mg/kg via tail vein): 0 Mouse
Number of mice that died on each day after infection: day 2 ([2]; 5 mg/kg via tail vein): 3 Mouse
Number of mice that died on each day after infection: day 3 ([2]; 5 mg/kg via tail vein): 0 Mouse
Number of mice that died on each day after infection: day 4 ([2]; 5 mg/kg via tail vein): 0 Mouse
Number of mice that died on each day after infection: day 5 ([2]; 5 mg/kg via tail vein): 0 Mouse
Average survival times (Days) ([2]; 5 mg/kg via tail vein): 10.4**** Days
survival time of mice infected with Pseudomonas aeruginosa ([2]; tail vein, observed 14 d): superior to those of the Levofloxacin group
Number of mice that died on each day after infection: day 4 ([3]; 0.2 mg/kg gavage): 1 Mouse
Number of mice that died on each day after infection: day 5 ([3]; 0.2 mg/kg gavage): 1 Mouse
Number of mice that died on each day after infection: day 6 ([3]; 0.2 mg/kg gavage): 2 Mouse
Number of mice that died on each day after infection: day 7 ([3]; 0.2 mg/kg gavage): 2 Mouse
Number of mice that died on each day after infection: day 8 ([3]; 0.2 mg/kg gavage): 1 Mouse
Average survival times (Days) ([3]; 0.2 mg/kg gavage): 8.5** Days
Number of mice that died on each day after infection: day 4 ([3]; 1 mg/kg gavage): 1 Mouse
Number of mice that died on each day after infection: day 5 ([3]; 1 mg/kg gavage): 1 Mouse
Number of mice that died on each day after infection: day 6 ([3]; 1 mg/kg gavage): 0 Mouse
Number of mice that died on each day after infection: day 7 ([3]; 1 mg/kg gavage): 1 Mouse
Number of mice that died on each day after infection: day 8 ([3]; 1 mg/kg gavage): 1 Mouse
Average survival times (Days) ([3]; 1 mg/kg gavage): 10.8*** Days
Number of mice that died on each day after infection: day 4 ([3]; 5 mg/kg gavage): 0 Mouse
Number of mice that died on each day after infection: day 5 ([3]; 5 mg/kg gavage): 3 Mouse
Number of mice that died on each day after infection: day 6 ([3]; 5 mg/kg gavage): 0 Mouse
Number of mice that died on each day after infection: day 7 ([3]; 5 mg/kg gavage): 2 Mouse
Number of mice that died on each day after infection: day 8 ([3]; 5 mg/kg gavage): 0 Mouse
Average survival times (Days) ([3]; 5 mg/kg gavage): 9.9** Days
survival time of mice infected with Escherichia coli ([3]; gavage, observed 14 d): superior to those of the Levofloxacin group

Ac-RKLLXRLKXRK-PEG200 [LV-26] (Ac-RKLL[2Nal]RLK[2Nal]RK-PEG200) [polyethylene glycol 200 conjugated to C-terminal; X=3-(2-naphthyl)-alanine]
Inhibition rate against Methicillin-resistant Staphylococcus aureus (%) ([4]; topical formulation 0.2 mg/mL): 86.51%
Inhibition rate against Methicillin-resistant Staphylococcus aureus (%) ([4]; topical formulation 1 mg/mL): 86.79%
Inhibition rate against Methicillin-resistant Staphylococcus aureus (%) ([4]; topical formulation 5 mg/mL): 87.56%
Inhibition rate against Methicillin-sensitive Staphylococcus aureus (%) ([5]; topical formulation 0.2 mg/mL): 96.35%
Inhibition rate against Methicillin-sensitive Staphylococcus aureus (%) ([5]; topical formulation 1 mg/mL): 96.92%
Inhibition rate against Methicillin-sensitive Staphylococcus aureus (%) ([5]; topical formulation 5 mg/mL): 97.87%
Number of mice that died on each day after infection: day 1 ([2]; 1 mg/kg via tail vein): 1 Mouse
Number of mice that died on each day after infection: day 2 ([2]; 1 mg/kg via tail vein): 1 Mouse
Number of mice that died on each day after infection: day 3 ([2]; 1 mg/kg via tail vein): 1 Mouse
Number of mice that died on each day after infection: day 4 ([2]; 1 mg/kg via tail vein): 1 Mouse
Number of mice that died on each day after infection: day 5 ([2]; 1 mg/kg via tail vein): 1 Mouse
Average survival times (Days) ([2]; 1 mg/kg via tail vein): 8.5** Days
Number of mice that died on each day after infection: day 4 ([3]; 1 mg/kg gavage): 2 Mouse
Number of mice that died on each day after infection: day 5 ([3]; 1 mg/kg gavage): 1 Mouse
Number of mice that died on each day after infection: day 6 ([3]; 1 mg/kg gavage): 0 Mouse
Number of mice that died on each day after infection: day 7 ([3]; 1 mg/kg gavage): 1 Mouse
Number of mice that died on each day after infection: day 8 ([3]; 1 mg/kg gavage): 1 Mouse
Average survival times (Days) ([3]; 1 mg/kg gavage): 9.8** Days
